How the values were obtained:
[1] = system: tumor necrosis factor (α); assay: Cytokine Induction in Human Cells: tumor necrosis factor (α) by ELISA or IGEN Assay; assay type: cell-based; conditions: human PBMC, incubated 18 to 24 hours, tested at 30–0.014 μM; induction at ≦10 μM
Source text: (§1) An in vitro human blood cell system is used to assess cytokine induction. Activity is based on the measurement of interferon and tumor necrosis factor (α) (IFN and TNF, respectively) secreted into culture media as described by Testerman et. al. In “Cytokine Induction by the Immunomodulators Imiquimod and S-27609”, Journal of Leukocyte Biology, 58, 365–372 (September, 1995).
(§2) Whole blood from healthy human donors is collected by venipuncture into EDTA vacutainer tubes. Peripheral blood mononuclear cells (PBMC) are separated from whole blood by density gradient centrifugation using Histopaque®-1077. Blood is diluted 1:1 with Dulbecco's Phosphate Buffered Saline (DPBS) or Hank's Balanced Salts Solution (HBSS). The PBMC layer is collected and washed twice with DPBS or HBSS and resuspended at 4×10^6 cells/mL in RPMI complete. The PBMC suspension is added to 48 well flat bottom sterile tissue culture plates (Costar, Cambridge, Mass. or Becton Dickinson Labware, Lincoln Park, N.J.) containing an equal volume of RPMI complete media containing test compound.
(§3) The compounds are solubilized in dimethyl sulfoxide (DMSO). The DMSO concentration should not exceed a final concentration of 1% for addition to the culture wells. The compounds are generally tested at concentrations ranging from 30–0.014 μM.
(§4) The solution of test compound is added at 60 μM to the first well containing RPMI complete and serial 3 fold dilutions are made in the wells. The PBMC suspension is then added to the wells in an equal volume, bringing the test compound concentrations to the desired range (30–0.014 μM). The final concentration of PBMC suspension is 2×10^6 cells/mL. The plates are covered with sterile plastic lids, mixed gently and then incubated for 18 to 24 hours at 37° C. in a 5% carbon dioxide atmosphere.
(§5) Following incubation the plates are centrifuged for 10 minutes at 1000 rpm (˜200×g) at 4° C. The cell-free culture supernatant is removed with a sterile polypropylene pipet and transferred to sterile polypropylene tubes. Samples are maintained at −30 to −70° C. until analysis. The samples are analyzed for interferon (a) by ELISA and for tumor necrosis factor (α) by ELISA or IGEN Assay.
Tumor necrosis factor (α) (TNF-α) concentration is determined using ELISA kits available from Biosource International, Camarillo, Calif. Alternately, the TNF-α concentration can be determined by Origen® M-Series Immunoassay and read on an IGEN M-8 analyzer from IGEN International, Gaithersburg, Md. The immunoassay uses a human TNF-α capture and detection antibody pair from Biosource International, Camarillo, Calif. Results are expressed in pg/mL.

interferon (α) = assay: Cytokine Induction in Human Cells: interferon (α) by ELISA; assay type: cell-based; conditions: human PBMC, incubated 18 to 24 hours, tested at 30–0.014 μM; induction at ≦10 μM
Source text: as §1, §2, §3, §4, §5
Interferon (α) concentration is determined by ELISA using a Human Multi-Species kit from PBL Biomedical Laboratories, New Brunswick, N.J. Results are expressed in pg/mL.

[2] = Solubility in DMSO for testing; assay type: physicochemical; design: key: *: the compound was not adequately soluble in DMSO to permit testing; conditions: printed as * in the cytokine columns
Method: as §3
Compounds of the invention were tested for their ability to induce cytokine biosynthesis using the method described above.

| SMILES | Tumor Necrosis Factor (α) [1] | Interferon (α) (interferon (α)) | melting point [°C] | adequately soluble in DMSO to permit testing [2] |
| --- | --- | --- | --- | --- |
| CCCCc1nc2c(N)nc3ccccc3c2n1CCCCNC(=O)NCCCCn1c(CCCC)nc2c(N)nc3ccccc3c21 [Example 1, N,N′-bis[4-(4-amino-2-butyl-1H-imidazo[4,5-c]quinolin-1-yl)butyl]urea] | + (at concentrations of ≦10 μM the compound induced the indicated cytokine) | + (at concentrations of ≦10 μM the compound induced the indicated cytokine) | 218.1 to 219.7 | – |
| CCCCc1nc2c(N)nc3ccccc3c2n1CCCCNC(=O)Nc1cccc(NC(=O)NCCCCn2c(CCCC)nc3c(N)nc4ccccc4c32)c1 [Example 2, N,N″-1,3-phenylenebis{N′-[4-(4-amino-2-butyl-1H-imidazo[4,5-c]quinolin-1-yl)butyl]urea}] | + (at concentrations of ≦10 μM the compound induced the indicated cytokine) | + (at concentrations of ≦10 μM the compound induced the indicated cytokine) | 160.3 to 165.6 | – |
| CCCCc1nc2c(N)nc3ccccc3c2n1CCCCNC(=O)Nc1ccc(Oc2ccc(NC(=O)NCCCCn3c(CCCC)nc4c(N)nc5ccccc5c43)cc2)cc1 [Example 3, N-[4-(4-amino-2-butyl-1H-imidazo[4,5-c]quinolin-1-yl)butyl]-N′-(4-{4-[({[4-(4-amino-2-butyl-1H-imidazo[4,5-c]quinolin-1-yl)butyl]amino}carbonyl)amino]phenoxy}phenyl)urea] | + (at concentrations of ≦10 μM the compound induced the indicated cytokine) | + (at concentrations of ≦10 μM the compound induced the indicated cytokine) | 152.1 to 156.1 | – |
| CCCCc1nc2c(N)nc3ccccc3c2n1CCCCNC(=O)N[C@H]1CC[C@H](NC(=O)NCCCCn2c(CCCC)nc3c(N)nc4ccccc4c32)CC1 [Example 4, N,N″-trans-1,4-cyclohexylenebis{N′-[4-(4-amino-2-butyl-1H-imidazo[4,5-c]quinolin-1-yl)butyl]urea}] | + (at concentrations of ≦10 μM the compound induced the indicated cytokine) | + (at concentrations of ≦10 μM the compound induced the indicated cytokine) | 184.5 to 188.8 | – |
| COCCc1nc2c(N)nc3ccccc3c2n1CCOCCNS(=O)(=O)c1cccc(S(=O)(=O)NCCOCCn2c(CCOC)nc3c(N)nc4ccccc4c32)c1 [Example 5, N,N-bis(2-{2-[4-amino-2-(2-methoxyethyl)-1H-imidazo[4,5-c]quinolin-1-yl]ethoxy}ethyl)benzene-1,3-disulfonamide] | + (at concentrations of ≦10 μM the compound induced the indicated cytokine) | + (at concentrations of ≦10 μM the compound induced the indicated cytokine) | 115 to 120 | – |
| COCCc1nc2c(N)nc3ccccc3c2n1CCOCCNC(=O)c1ccc(C(=O)NCCOCCn2c(CCOC)nc3c(N)nc4ccccc4c32)cc1 [Example 6, N,N′-bis(2-{2-[4-amino-2-(2-methoxyethyl)-1H-imidazo[4,5-c]quinolin-1-yl]ethoxy}ethyl)terephthalamide] | + (at concentrations of ≦10 μM the compound induced the indicated cytokine) | + (at concentrations of ≦10 μM the compound induced the indicated cytokine) | – | – |
| COCCc1nc2c(N)nc3ccccc3c2n1CCOCCNC(=O)NCCCCCCCCNC(=O)NCCOCCn1c(CCOC)nc2c(N)nc3ccccc3c21 [Example 7, N,N″-1,8-octanediylbis[N′-(2-{2-[4-amino-2-(methoxyethyl)-1H-imidazo[4,5-c]quinolin-1-yl]ethoxy}ethyl)urea]] | + (at concentrations of ≦10 μM the compound induced the indicated cytokine) | + (at concentrations of ≦10 μM the compound induced the indicated cytokine) | 172.5 to 177 | – |
| CCOCc1nc2c(N)nc3ccccc3c2n1CCCCCCCCCCn1c(COCC)nc2c(N)nc3ccccc3c21 [Example 8, 1-[10-(4-amino-2-ethoxymethyl-1H-imidazo[4,5-c]quinolin-1-yl)decyl]-2-ethoxymethyl-1H-imidazo[4,5-c]quinoline-4-amine] | – | – | 237 to 238 | * |
